Tested on: IGROV1 complex spheroids (HUVEC, MSC), viability % test/control
Assay: Anticancer human tumor IGROV1 cell line growth inhibition [GQUAD];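 further: spheroids exposed to compounds for 7 days before readout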;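 on viability, T/C: 100% = DMSO vehicle control viability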
Conditions: for IC50: curve of first compound; for viability, T/C: stronger effect = lower value
Summary of the method: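 Viability of tumor cells grown as complex spheroids with endothelial and stromal cells, exposed to drug combinations. Top concentration at or near clinical Cmax (else 10 microM), diluted in half-log increments.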

[1] = second compound 0.0316 µM, first compound 0.0316 µM
[2] = second compound 0.0316 µM, first compound 0.1 µM
[3] = second compound 0.0316 µM, first compound 0.316 µM
[4] = second compound 0.0316 µM, first compound 1 µM
[5] = second compound 0.0316 µM, first compound 3.16 µM
[6] = second compound 0.0316 µM, first compound 10 µM
[7] = second compound 0.1 µM, first compound 0.0316 µM
[8] = second compound 0.1 µM, first compound 0.1 µM
[9] = second compound 0.1 µM, first compound 0.316 µM
[10] = second compound 0.1 µM, first compound 1 µM
[11] = second compound 0.1 µM, first compound 3.16 µM
[12] = second compound 0.1 µM, first compound 10 µM
[13] = second compound 0.316 µM, first compound 0.0316 µM
[14] = second compound 0.316 µM, first compound 0.1 µM
[15] = second compound 0.316 µM, first compound 0.316 µM
[16] = second compound 0.316 µM, first compound 1 µM
[17] = second compound 0.316 µM, first compound 3.16 µM
[18] = second compound 0.316 µM, first compound 10 µM
[19] = second compound 1 µM, first compound 0.0316 µM
[20] = second compound 1 µM, first compound 0.1 µM
[21] = second compound 1 µM, first compound 0.316 µM
[22] = second compound 1 µM, first compound 1 µM
[23] = second compound 1 µM, first compound 3.16 µM
[24] = second compound 1 µM, first compound 10 µM
[25] = second compound 3.16 µM, first compound 0.0316 µM
[26] = second compound 3.16 µM, first compound 0.1 µM
[27] = second compound 3.16 µM, first compound 0.316 µM
[28] = second compound 3.16 µM, first compound 1 µM
[29] = second compound 3.16 µM, first compound 3.16 µM
[30] = second compound 3.16 µM, first compound 10 µM
[31] = second compound 10 µM, first compound 0.0316 µM
[32] = second compound 10 µM, first compound 0.1 µM
[33] = second compound 10 µM, first compound 0.316 µM
[34] = second compound 10 µM, first compound 1 µM
[35] = second compound 10 µM, first compound 3.16 µM
[36] = second compound 10 µM, first compound 10 µM

C#Cc1c(F)ccc2cc(O)cc(-c3ncc4c(N5CC6CCC(C5)N6)nc(OCC56CCCN5CC(F)C6)nc4c3F)c12 (stereo not given) + Cc1cnc(CNC(=O)c2c(=O)c3ccc(N4CCCN(C)CC4)nc3n3c2sc2ccccc23)cn1
IC50 (second compound 0.0316 µM): 2820 nM
IC50 (second compound 0.1 µM): < 31.6 nM
IC50 (second compound 0.316 µM): < 31.6 nM
IC50 (second compound 1 µM): < 31.6 nM
IC50 (second compound 3.16 µM): < 31.6 nM
IC50 (second compound 10 µM): < 31.6 nM
viability, T/C [1]: 70%
viability, T/C [2]: 67.6%
viability, T/C [3]: 58.5%
viability, T/C [4]: 56.4%
viability, T/C [5]: 47.6%
viability, T/C [6]: 45.3%
viability, T/C [7]: 40.6%
viability, T/C [8]: 41.9%
viability, T/C [9]: 36.5%
viability, T/C [10]: 27.3%
viability, T/C [11]: 35.8%
viability, T/C [12]: 17.3%
viability, T/C [13]: 21.4%
viability, T/C [14]: 21.5%
viability, T/C [15]: 20.7%
viability, T/C [16]: 24.7%
viability, T/C [17]: 18.3%
viability, T/C [18]: 15.1%
viability, T/C [19]: 16.7%
viability, T/C [20]: 16.4%
viability, T/C [21]: 11.1%
viability, T/C [22]: 13.3%
viability, T/C [23]: 14.5%
viability, T/C [24]: 7.91%
viability, T/C [25]: 9.65%
viability, T/C [26]: 9.22%
viability, T/C [27]: 8.28%
viability, T/C [28]: 10.1%
viability, T/C [29]: 10%
viability, T/C [30]: 6.58%
viability, T/C [31]: 7.28%
viability, T/C [32]: 7.39%
viability, T/C [33]: 9.03%
viability, T/C [34]: 8.87%
viability, T/C [35]: 8.84%
viability, T/C [36]: 7.64%

CC(=O)O[C@H]1C(=O)[C@@]2(C)[C@H]([C@H](OC(=O)c3ccccc3)[C@]3(O)C[C@H](OC(=O)[C@H](O)[C@@H](NC(=O)c4ccccc4)c4ccccc4)C(C)=C1C3(C)C)[C@]1(OC(C)=O)CO[C@@H]1C[C@@H]2O + Cc1cnc(CNC(=O)c2c(=O)c3ccc(N4CCCN(C)CC4)nc3n3c2sc2ccccc23)cn1
IC50 (second compound 0.0316 µM): < 31.6 nM
IC50 (second compound 0.1 µM): < 31.6 nM
IC50 (second compound 0.316 µM): < 31.6 nM
IC50 (second compound 1 µM): < 31.6 nM
IC50 (second compound 3.16 µM): < 31.6 nM
IC50 (second compound 10 µM): < 31.6 nM
viability, T/C [1]: 6.85%
viability, T/C [2]: 7.2%
viability, T/C [3]: 5.93%
viability, T/C [4]: 4.84%
viability, T/C [5]: 5.81%
viability, T/C [6]: 5%
viability, T/C [7]: 8.41%
viability, T/C [8]: 6.77%
viability, T/C [9]: 4.59%
viability, T/C [10]: 5.47%
viability, T/C [11]: 5.23%
viability, T/C [12]: 5.1%
viability, T/C [13]: 7.94%
viability, T/C [14]: 7.36%
viability, T/C [15]: 5.21%
viability, T/C [16]: 5.4%
viability, T/C [17]: 5.37%
viability, T/C [18]: 5.62%
viability, T/C [19]: 8.3%
viability, T/C [20]: 8.57%
viability, T/C [21]: 6.36%
viability, T/C [22]: 6.43%
viability, T/C [23]: 6.28%
viability, T/C [24]: 5.79%
viability, T/C [25]: 7.17%
viability, T/C [26]: 6.44%
viability, T/C [27]: 7.03%
viability, T/C [28]: 6.22%
viability, T/C [29]: 6.75%
viability, T/C [30]: 5.4%
viability, T/C [31]: 5.82%
viability, T/C [32]: 6.66%
viability, T/C [33]: 6.12%
viability, T/C [34]: 6.29%
viability, T/C [35]: 6.72%
viability, T/C [36]: 6.2%

CCCS(=O)(=O)Nc1ccc(F)c(C(=O)c2c[nH]c3ncc(-c4ccc(Cl)cc4)cc23)c1F + Cc1cnc(CNC(=O)c2c(=O)c3ccc(N4CCCN(C)CC4)nc3n3c2sc2ccccc23)cn1
IC50 (second compound 0.0316 µM): 1470 nM
IC50 (second compound 0.1 µM): < 31.6 nM
IC50 (second compound 0.316 µM): < 31.6 nM
IC50 (second compound 1 µM): < 31.6 nM
IC50 (second compound 3.16 µM): < 31.6 nM
IC50 (second compound 10 µM): < 31.6 nM
viability, T/C [1]: 77.1%
viability, T/C [2]: 71.3%
viability, T/C [3]: 50.1%
viability, T/C [4]: 52.3%
viability, T/C [5]: 51.9%
viability, T/C [6]: 14.2%
viability, T/C [7]: 44.5%
viability, T/C [8]: 42.7%
viability, T/C [9]: 41.1%
viability, T/C [10]: 31.6%
viability, T/C [11]: 37.9%
viability, T/C [12]: 9.64%
viability, T/C [13]: 21%
viability, T/C [14]: 33.1%
viability, T/C [15]: 25.4%
viability, T/C [16]: 24.6%
viability, T/C [17]: 14.4%
viability, T/C [18]: 7.38%
viability, T/C [19]: 15.1%
viability, T/C [20]: 17.2%
viability, T/C [21]: 11.9%
viability, T/C [22]: 15.9%
viability, T/C [23]: 14.6%
viability, T/C [24]: 5.36%
viability, T/C [25]: 9.19%
viability, T/C [26]: 7.43%
viability, T/C [27]: 10.5%
viability, T/C [28]: 10.6%
viability, T/C [29]: 9.32%
viability, T/C [30]: 4.31%
viability, T/C [31]: 10.1%
viability, T/C [32]: 9.63%
viability, T/C [33]: 8.82%
viability, T/C [34]: 8.04%
viability, T/C [35]: 6.37%
viability, T/C [36]: 5.19%

COc1cccc2c1C(=O)c1c(O)c3c(c(O)c1C2=O)CC(O)(C(=O)CO)CC3OC1CC(N)C(O)C(C)O1 (stereo not given) + Cc1cnc(CNC(=O)c2c(=O)c3ccc(N4CCCN(C)CC4)nc3n3c2sc2ccccc23)cn1
IC50 (second compound 0.0316 µM): < 31.6 nM
IC50 (second compound 0.1 µM): < 31.6 nM
IC50 (second compound 0.316 µM): < 31.6 nM
IC50 (second compound 1 µM): < 31.6 nM
IC50 (second compound 3.16 µM): < 31.6 nM
IC50 (second compound 10 µM): < 31.6 nM
viability, T/C [1]: 40.4%
viability, T/C [2]: 21.2%
viability, T/C [3]: 7.47%
viability, T/C [4]: 4.08%
viability, T/C [5]: 0.07%
viability, T/C [6]: 0.9%
viability, T/C [7]: 29.5%
viability, T/C [8]: 15.3%
viability, T/C [9]: 9.07%
viability, T/C [10]: 3.71%
viability, T/C [11]: 0.05%
viability, T/C [12]: 0.74%
viability, T/C [13]: 18.7%
viability, T/C [14]: 14.9%
viability, T/C [15]: 7.44%
viability, T/C [16]: 3.57%
viability, T/C [17]: 0.07%
viability, T/C [18]: 0.73%
viability, T/C [19]: 11.8%
viability, T/C [20]: 9.55%
viability, T/C [21]: 7.95%
viability, T/C [22]: 3.7%
viability, T/C [23]: 0.05%
viability, T/C [24]: 0.66%
viability, T/C [25]: 10.9%
viability, T/C [26]: 9.14%
viability, T/C [27]: 6.91%
viability, T/C [28]: 2.27%
viability, T/C [29]: 0.07%
viability, T/C [30]: 0.41%
viability, T/C [31]: 11.1%
viability, T/C [32]: 8.57%
viability, T/C [33]: 5.52%
viability, T/C [34]: 1.8%
viability, T/C [35]: 0.14%
viability, T/C [36]: 0.45%

O=c1[nH]cc(F)c(=O)[nH]1 + Cc1cnc(CNC(=O)c2c(=O)c3ccc(N4CCCN(C)CC4)nc3n3c2sc2ccccc23)cn1
IC50 (second compound 0.0316 µM): 4520 nM
IC50 (second compound 0.1 µM): < 31.6 nM
IC50 (second compound 0.316 µM): < 31.6 nM
IC50 (second compound 1 µM): < 31.6 nM
IC50 (second compound 3.16 µM): < 31.6 nM
IC50 (second compound 10 µM): < 31.6 nM
viability, T/C [1]: 69.8%
viability, T/C [2]: 66.3%
viability, T/C [3]: 51.5%
viability, T/C [4]: 66.9%
viability, T/C [5]: 63.7%
viability, T/C [6]: 20.2%
viability, T/C [7]: 39.9%
viability, T/C [8]: 38.9%
viability, T/C [9]: 41.9%
viability, T/C [10]: 36.1%
viability, T/C [11]: 35.7%
viability, T/C [12]: 17.7%
viability, T/C [13]: 27.9%
viability, T/C [14]: 23.6%
viability, T/C [15]: 29.5%
viability, T/C [16]: 25.2%
viability, T/C [17]: 25.8%
viability, T/C [18]: 15.1%
viability, T/C [19]: 15.6%
viability, T/C [20]: 15.3%
viability, T/C [21]: 17.3%
viability, T/C [22]: 19%
viability, T/C [23]: 20.4%
viability, T/C [24]: 9.16%
viability, T/C [25]: 11.3%
viability, T/C [26]: 15.5%
viability, T/C [27]: 14.1%
viability, T/C [28]: 9.51%
viability, T/C [29]: 12.9%
viability, T/C [30]: 7.27%
viability, T/C [31]: 11.2%
viability, T/C [32]: 8.66%
viability, T/C [33]: 10.8%
viability, T/C [34]: 9.81%
viability, T/C [35]: 9.32%
viability, T/C [36]: 5.96%

Source: PubChem BioAssay AID2060486 (Molecular Pharmacology Branch, DTP, NCI, 2025)
